# Values joined by “and” are separate entries in the source; they are usually repeats but may differ in a detail not shown here. Equal values may be shown once.
# Key:
# [1] = system: spinal nerve ligation model rats; test: Latent time of pain response to heat stimulus (heat hyperalgesia) in rat spinal nerve ligation model; assay type: in vivo
# Experimental: (§1) Male rats were used in the experiment. Spinal nerve ligation models were made in accordance with the method of Kim & Chung (Kim, S. H. & Chung, J. M., An experimental model for peripheral neuropathy produced by segmental spinal nerve ligation in the rat, Pain, 50, 355-363, 1992). Namely, the fifth lumber nerve in one side was strongly ligated with silken threads.
# (§2) More specifically, the models were made in the following manner.
# (§3) After intraperitoneally administering 40 mg/kg (liquid volume 0.8 ml/kg) of pentobarbital (Nenbutal Injection (trade name), Dainippon Pharmaceutical Co., Ltd.), a rat was fixed in the dorsal position under anesthesia and the abdomen was incised in the median line with scissors. The intestines and the like were pushed aside with sterilized gauze and the abdominal aorta and the abdominal vein were confirmed. Then, the muscle located immediately below the iliolumbar vein was cleaved with tweezers. After confirming the fourth lumber nerve and the fifth lumber nerve in the muscle, the fifth lumber nerve (L5) was ligated with 6-0 silken threads. Subsequently, the intestines having been pushed away were returned to the original positions. 5 ml of physiological saline (otsuka Pharmaceutical Factory, Inc.) containing ampicillin sodium (Viccillin for Injection (trade name), Meiji Seika Kaisha, Ltd.) (ampicillin concentration: 20 mg/ml) was poured into the peritoneal cavity, and the abdominal muscles and skin were sutured with a nylon thread.
# From immediately after the spinal nerve ligation, 30 mg/kg of (2R)-2-propyloctanoic acid was orally administered once a day for 14 days (14 times in total). Also, vehicle control was administered in the same manner. […]
# On the next day of the final administration, the latent time of heat stimulus was measured. Namely, right and left footpads were irradiated with infrared light of a halogen lamp from the lower side, and the time until the occurrence of an escape response (the latent time of pain reaction: sec) was measured.
# [2] = system: spinal nerve ligation model rats; test: Escape threshold of contact stimulus, von Frey filaments (contact allodynia) in rat spinal nerve ligation model; assay type: in vivo
# Experimental: as §1, §2, §3
# From immediately after the spinal nerve ligation, 30 mg/kg of (2R)-2-propyloctanoic acid was orally administered once a day for 14 days (14 times in total). Also, vehicle control was administered in the same manner.
# (3-2) Measurement of Escape Threshold of Contact Stimulus (Evaluation of Contact Allodynia)
# On the next day of the final administration, the escape threshold of a contact stimulus was measured. Namely, filaments (von Frey filaments: VFF) were pressed against right and left footpads from the lower side. Then, the VFF indication at the occurrence of an escape response was recorded and converted into weight (g).
# dogs = settings: dog, in vivo, iv, 100 mg/kg
# Description: Since the toxicity of (2R)-2-propyloctanoic acid, a salt thereof or a prodrug thereof is extremely low, it can be considered to be sufficiently safe for medicinal uses.
# [3] = 30 mg/kg orally once a day for 14 days from immediately after L5 ligation, measured next day after final administration, injured (operated-on) side
# [4] = 30 mg/kg orally once a day for 14 days from immediately after L5 ligation, measured next day after final administration, normal (opposite) side
# [5] = 30 mg/kg orally, 14 days, injured side vs vehicle control, p<0.01 Welch test
structure (smiles),measurement,setting,value
CCCCCC[C@@H](CCC)C(=O)O [(2R)-2-propyloctanoic acid],Latent time of pain response (sec) Injured side,[1]; [3],13.61 s and 13.61 ± 6.76 s
same,Latent time of pain response (sec) Normal side,[1]; [4],19.00 s and 19.00 ± 5.58 s
same,Analgesic effect on heat hyperalgesia,[1]; [5],an analgesic effect on heat hyperalgesia was confirmed
same,Escape threshold of contact stimulus (g) Injured side,[2]; [3],14.7 g and 14.7 ± 12.7 g
same,Escape threshold of contact stimulus (g) Normal side,[2]; [4],66.1 g and 66.1 ± 29.8 g
same,Analgesic effect on contact allodynia,[2]; [5],an analgesic effect on contact allodynia was confirmed
same,Fatal cases,dogs,no fatal case was observed
